Results published in the NIST ThermoML archive (doi:10.1016/j.tca.2012.06.011).

Test: xn = mol fraction of the nth substance listed
Conditions: 101 kPa, Liquid; for viscosity: Capillary tube (Ostwald / Ubbelohde) method; for mass density: Vibrating tube method

CN1CCNCC1 [N-methylpiperazine] + C1C[C@@H]2[C@H]3CC[C@H](C3)[C@@H]2C1
Conditions | mass density, 298.15 K [kg/m3] | mass density, 303.15 K [kg/m3] | mass density, 308.15 K [kg/m3] | mass density, 313.15 K [kg/m3] | mass density, 323.15 K [kg/m3] | viscosity, 298.15 K [mPa·s] | viscosity, 303.15 K [mPa·s] | viscosity, 308.15 K [mPa·s] | viscosity, 313.15 K [mPa·s] | viscosity, 323.15 K [mPa·s]
x1 = 0.1337 | 925.63 | 921.65 | 917.65 | 913.66 | 905.68 | 2.432 | 2.214 | 2.021 | 1.844 | 1.574
x1 = 0.2543 | 920.97 | 916.91 | 912.83 | 908.76 | 900.62 | 2.247 | 2.051 | 1.868 | 1.694 | 1.452
x1 = 0.3678 | 916.92 | 912.79 | 908.63 | 904.48 | 896.19 | 2.125 | 1.925 | 1.752 | 1.583 | 1.351
x1 = 0.4768 | 913.25 | 909.05 | 904.83 | 900.62 | 892.2 | 2.016 | 1.822 | 1.655 | 1.492 | 1.281
x1 = 0.577 | 910.05 | 905.8 | 901.53 | 897.26 | 888.74 | 1.943 | 1.756 | 1.583 | 1.435 | 1.237
x1 = 0.672 | 907.32 | 903.04 | 898.72 | 894.4 | 885.79 | 1.921 | 1.708 | 1.545 | 1.399 | 1.195
x1 = 0.76 | 904.59 | 900.27 | 895.93 | 891.58 | 882.9 | 1.893 | 1.681 | 1.512 | 1.362 | 1.162
x1 = 0.8407 | 902.15 | 897.92 | 893.59 | 889.24 | 880.55 | 1.894 | 1.656 | 1.502 | 1.35 | 1.154
x1 = 0.9242 | 900.27 | 895.92 | 891.51 | 887.11 | 878.34 | 1.877 | 1.632 | 1.467 | 1.318 | 1.116
x1 = 1 | 899.28 | 894.9 | 890.5 | 886.07 | 877.28 | 1.854 | 1.583 | 1.409 | 1.258 | 1.064

C1C[C@@H]2[C@H]3CC[C@H](C3)[C@@H]2C1 [exo-tetrahydrodicyclopentadiene] + CCN(CC)CC
Conditions | mass density, 298.15 K [kg/m3] | mass density, 303.15 K [kg/m3] | mass density, 308.15 K [kg/m3] | mass density, 313.15 K [kg/m3] | mass density, 323.15 K [kg/m3] | viscosity, 298.15 K [mPa·s] | viscosity, 303.15 K [mPa·s] | viscosity, 308.15 K [mPa·s] | viscosity, 313.15 K [mPa·s] | viscosity, 323.15 K [mPa·s]
x2 = 0 | 931.29 | 927.38 | 923.46 | 919.54 | 911.7 | 2.8 | 2.549 | 2.332 | 2.124 | 1.811
x2 = 0.1347 | 906.47 | 902.17 | 898.15 | 894.12 | 885.86 | 2.034 | 1.871 | 1.714 | 1.57 | 1.36
x2 = 0.2521 | 883.66 | 879.54 | 875.44 | 871.32 | 863.09 | 1.535 | 1.421 | 1.324 | 1.217 | 1.063
x2 = 0.365 | 861.16 | 856.98 | 852.8 | 848.59 | 840.22 | 1.188 | 1.109 | 1.035 | 0.955 | 0.842
x2 = 0.4709 | 839.56 | 835.31 | 831.04 | 826.75 | 818.22 | 0.961 | 0.893 | 0.829 | 0.77 | 0.69
x2 = 0.5711 | 818.66 | 814.33 | 809.98 | 805.62 | 796.93 | 0.779 | 0.738 | 0.691 | 0.649 | 0.578
x2 = 0.6683 | 798.2 | 793.7 | 789.27 | 784.85 | 775.97 | 0.653 | 0.618 | 0.583 | 0.547 | 0.492
x2 = 0.7585 | 778.5 | 773.97 | 769.46 | 764.95 | 755.83 | 0.55 | 0.524 | 0.503 | 0.463 | 0.431
x2 = 0.8414 | 759.95 | 755.41 | 750.85 | 746.25 | 737.14 | 0.476 | 0.455 | 0.433 | 0.406 | 0.373
x2 = 0.9136 | 743.67 | 739.07 | 734.45 | 729.79 | 720.56 | 0.419 | 0.399 | 0.38 | 0.368 | 0.327
